Key:
[1] = target: endogenous glucocorticoid receptor (Homo sapiens, UniProt P04150); conditions: concentration ≦10 µM; A549 cells stimulated with 10 ng/ml PMA; versus buffer control
Description: A549 cells, which contain endogenous glucocorticoid receptor, were stably transfected with an AP-1 DNA binding site attached to the luciferase gene. […] Cells are plated the day before the assay at approximately 40000 cells/well. […] Activity is measured by analysis in a luminometer as compared to control experiments treated with buffer or dexamethasome.

AR = target: T1, AR (Rattus norvegicus, UniProt P15207)
T1 sequence (P15207 1-902): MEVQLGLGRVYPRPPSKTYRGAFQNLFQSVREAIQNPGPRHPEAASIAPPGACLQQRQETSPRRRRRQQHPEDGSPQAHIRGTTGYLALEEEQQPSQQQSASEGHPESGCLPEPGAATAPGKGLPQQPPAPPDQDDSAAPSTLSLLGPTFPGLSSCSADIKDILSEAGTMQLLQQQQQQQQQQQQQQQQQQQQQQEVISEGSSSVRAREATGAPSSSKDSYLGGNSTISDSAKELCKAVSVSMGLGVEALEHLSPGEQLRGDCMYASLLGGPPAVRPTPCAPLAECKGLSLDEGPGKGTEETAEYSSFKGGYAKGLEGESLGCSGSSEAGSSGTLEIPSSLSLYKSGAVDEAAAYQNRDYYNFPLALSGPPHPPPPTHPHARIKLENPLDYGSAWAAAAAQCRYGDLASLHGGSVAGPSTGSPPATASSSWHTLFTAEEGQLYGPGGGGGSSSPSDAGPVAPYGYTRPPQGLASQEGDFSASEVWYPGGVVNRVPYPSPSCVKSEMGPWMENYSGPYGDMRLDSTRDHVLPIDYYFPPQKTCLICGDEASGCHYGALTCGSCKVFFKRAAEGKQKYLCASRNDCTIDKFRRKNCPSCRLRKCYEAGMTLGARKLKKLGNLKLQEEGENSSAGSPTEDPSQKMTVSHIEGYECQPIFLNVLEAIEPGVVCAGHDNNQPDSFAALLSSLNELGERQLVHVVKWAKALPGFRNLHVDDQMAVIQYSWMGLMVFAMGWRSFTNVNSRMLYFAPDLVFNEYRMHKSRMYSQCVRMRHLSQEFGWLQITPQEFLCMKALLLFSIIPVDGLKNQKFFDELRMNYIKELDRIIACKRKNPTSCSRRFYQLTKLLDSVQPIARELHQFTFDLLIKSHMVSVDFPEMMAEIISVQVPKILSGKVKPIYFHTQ
Source text: The activity of compounds of the present invention as AR agonists was investigated in an immature male rat model, a recognized test of anabolic effects in muscle and sustaining effects in sex organs for a given compound, as described in L. G. Hershberger et al., Proc. Soc. […] Biol. Med., 83, 175 (1953); B. L. Beyler et al, “Methods for evaluating anabolic and catabolic agents in laboratory animals”, J. Amer. Med. Women's Ass., 23, 708 (1968); H. Fukuda et al., “Investigations of the levator ani muscle as an anabolic steroid assay”, Nago Dai. Yak. Ken. Nem. 14, 84 (1966) the disclosures of which are herein incorporated by reference.
The basis of this assay lies in the well-defined action of androgenic agents on the maintenance and growth of muscle tissues and sexual accessory organs in animals and man. […] J. Anat. […] Ital. Biol. Sper. […] II. […] Ital. Biol. Sper. 42, 1600 (1966); A. Boris et al., Steroids 15, 61 (1970). As described above, the effects of androgens on maintenance of male sexual accessory organs, such as the prostate and seminal vesicles, is well described. Castration results in rapid involution and atrophy of the prostate and seminal vesicles. This effect can be reversed by exogenous addition of androgens. […]

endogenous glucocorticoid receptor, sequence (P04150 whole entry): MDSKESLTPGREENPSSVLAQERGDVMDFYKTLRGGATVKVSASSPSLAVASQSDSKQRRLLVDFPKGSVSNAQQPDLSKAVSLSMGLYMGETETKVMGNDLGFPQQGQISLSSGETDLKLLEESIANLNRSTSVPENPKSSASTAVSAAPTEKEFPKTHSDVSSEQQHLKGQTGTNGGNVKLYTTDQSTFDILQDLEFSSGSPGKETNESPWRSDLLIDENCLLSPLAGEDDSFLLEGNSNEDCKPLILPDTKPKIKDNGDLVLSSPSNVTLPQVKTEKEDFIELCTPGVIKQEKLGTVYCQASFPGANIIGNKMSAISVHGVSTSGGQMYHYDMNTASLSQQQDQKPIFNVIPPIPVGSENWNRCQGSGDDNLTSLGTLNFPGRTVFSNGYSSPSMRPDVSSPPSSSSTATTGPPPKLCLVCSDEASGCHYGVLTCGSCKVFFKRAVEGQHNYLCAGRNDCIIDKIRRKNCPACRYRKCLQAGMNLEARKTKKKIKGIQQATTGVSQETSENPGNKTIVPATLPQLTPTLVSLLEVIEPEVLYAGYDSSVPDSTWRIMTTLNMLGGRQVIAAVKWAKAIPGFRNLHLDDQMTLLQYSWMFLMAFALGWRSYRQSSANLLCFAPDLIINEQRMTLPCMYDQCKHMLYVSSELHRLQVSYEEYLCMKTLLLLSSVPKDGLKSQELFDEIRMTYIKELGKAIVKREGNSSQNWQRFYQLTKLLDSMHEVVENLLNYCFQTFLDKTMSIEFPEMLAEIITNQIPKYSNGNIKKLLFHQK

Row | SMILES | melting point [°C] | further results
1 | C[C@@]12C(=O)N(c3ccc(C#N)c4ccccc34)C(=O)N1CC[C@@H]2O | 234 to 235 | 
2 | N#Cc1ccc(N2C(=O)[C@H]3[C@@H](O)CCCN3C2=O)c2ccccc12 | 244 | 
3 | N#Cc1ccc(N2C(=O)[C@@H]3[C@H](O)[C@H](O)CN3C2=O)c2ccccc12 (stereo in doubt) | 225 | 
4 | O=C1[C@H]2[C@@H](O)CCN2C(=O)N1c1ccc(Br)c2ccccc12 (racemic) | 204 to 206 | 
5 | C[C@@H]1C[C@H]2[C@@H]3CCC4=CC(=O)C=C[C@]4(C)[C@@]3(F)[C@@H](O)C[C@]2(C)[C@@]1(O)C(=O)CO [dexamethasone] |  | % inhibition of the reporter system (suppresses activity) [1]: 65%
6 | O=C1C2CCCCN2C(=O)N1c1ccc([N+](=O)[O-])c2ccccc12 (racemic) | 190 to 192 | 
7 | O=C1C2C[C@@H](OCc3ccccc3)CN2C(=O)N1c1ccc([N+](=O)[O-])c2ccccc12 (stereo partly shown) | 120 to 122 | 
8 | C[C@]12C(=O)N(c3ccc(C#N)c4ccccc34)C(=O)N1CC[C@H]2O | 232 to 234 | 
9 | N#Cc1ccc(N2C(=O)[C@@H]3[C@H](O)CCN3C2=S)c2ccccc12 | 215 to 216 | 
10 | N#Cc1ccc(N2CC3[C@@H](O)CCN3C2=O)c2ccccc12 (stereo partly shown) | 226 to 228 | 
11 | CC(C)(C)OC(=O)N1CCN2C(=O)N(c3ccc(C#N)c4ccccc34)C(=O)C2C1 (stereo not shown) | 222 to 224 | 
12 | Cl.N#Cc1ccc(N2C(=O)C3CNCCN3C2=O)c2ccccc12 (racemic) | 200 | 
13 | CO[C@H]1CCN2C(=O)N(c3ccc(C#N)c4ccccc34)C(=O)[C@@H]12 (racemic) | 185 to 186 | 
14 | CC(C)(C)[C@H]1N(c2ccc(C#N)c3ccccc23)C(=O)[C@@H]2C[C@@H](O)CN21 | 155 to 157 | 
15 | CS(=O)(=O)N1CCN2C(=O)N(c3ccc(C#N)c4ccccc34)C(=O)C2C1 (racemic) | 207 to 216 | 
16 | N#Cc1ccc(N2C(=O)[C@@H]3[C@H](O)CCCN3C2=O)c2ccccc12 (racemic) | 243 | 
17 | N#Cc1ccc(N2C(=O)[C@H]3[C@@H](O)[C@@H](O)CN3C2=O)c2ccccc12 (stereo in doubt) | 246 | 
18 | N#Cc1ccc(N2C[C@@H]3[C@H](O)CCN3C2=O)c2ccccc12 | 226 to 228 | 
19 | CCC(=O)O[C@H]1CC[C@H]2[C@@H]3CCC4=CC(=O)CC[C@]4(C)[C@H]3CC[C@]12C [TP, testosterone propionate] |  | EC50 (organ weight increase) (AR; immature castrated rats): ~0.03 mg; potency relative to free T (AR; organ weight increase, castrated rats): 10–30 fold
20 | CC(=O)O[C@@H]1CCN2C(=O)N(c3ccc(C#N)c4ccccc34)C(=O)[C@H]12 (racemic) | 105 | 
21 | N#Cc1ccc(N2C(=O)C3=CCCN3C2=O)c2ccccc12 | 230 to 232 | 
